Test results: ChEMBL document CHEMBL1201862, “PubChem BioAssay data set” (2004)
Calls of active or inactive are those of the source.

Key:
Type in all cases: functional
[1] = molecular target: Dual specificity mitogen-activated protein kinase kinase 1 (Homo sapiens, UniProt Q02750); experiment: Navigating the Kinome. Panel member name: MAP2K1
[2] = molecular target: Tyrosine-protein kinase JAK2 (Homo sapiens, UniProt O60674);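 also: JAK2 tested as one member of a kinase panel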
[3] = molecular target: Phosphorylase b kinase gamma catalytic chain, liver/testis isoform (Homo sapiens, UniProt P15735);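 also: PHKG2 measured as one member of a kinome-wide kinase panel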
[4] = molecular target: 5'-AMP-activated protein kinase catalytic subunit alpha-1 (Homo sapiens, UniProt Q13131)
[5] = molecular target: ALK tyrosine kinase receptor (Homo sapiens, UniProt Q9UM73);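 also: ALK tested as one member of a kinase panel screen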
[6] = molecular target: Calcium/calmodulin-dependent protein kinase type II subunit gamma (Homo sapiens, UniProt Q13555)
[7] = molecular target: Death-associated protein kinase 3 (Homo sapiens, UniProt O43293);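 also: measured as one member of a kinome-wide profiling panel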
[8] = molecular target: Mitogen-activated protein kinase 8 (Homo sapiens, UniProt P45983);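 also: value comes from one member of a kinome-wide kinase profiling panel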
Aurora kinase A = Aurora kinase A (Homo sapiens, UniProt O14965);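 also: value from the Navigating the Kinome kinase panel profiling, panel entry STK6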
[9] = molecular target: MAP kinase-activated protein kinase 2 (Homo sapiens, UniProt P49137);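 also: measured as one member of a kinome-wide kinase panel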
[10] = molecular target: Serine/threonine-protein kinase PAK 4 (Homo sapiens, UniProt O96013);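 also: value obtained within a kinome profiling panel in which PAK4 was one of the panel members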
[11] = molecular target: Serine/threonine-protein kinase PAK 1 (Homo sapiens, UniProt Q13153)
[12] = molecular target: Casein kinase I isoform alpha (Homo sapiens, UniProt P48729)
[13] = molecular target: Casein kinase I isoform gamma-1 (Homo sapiens, UniProt Q9HCP0);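 also: measured as the CSNK1G1 member of a kinome profiling panel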
[14] = molecular target: Protein kinase C gamma type (Homo sapiens, UniProt P05129)
[15] = molecular target: Proto-oncogene tyrosine-protein kinase Src (Homo sapiens, UniProt P12931);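 also: SRC entry within a kinome-wide kinase profiling panel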
[16] = molecular target: Tyrosine-protein kinase Srms (Homo sapiens, UniProt Q9H3Y6);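 also: SRMS measured as one member of a kinome-wide kinase profiling panel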
[17] = molecular target: Interleukin-1 receptor-associated kinase 1 (Homo sapiens, UniProt P51617);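 also: IRAK1 tested as one member of a kinome panel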
[18] = molecular target: Maternal embryonic leucine zipper kinase (Homo sapiens, UniProt Q14680)
[19] = molecular target: T1, Interleukin-1 receptor-associated kinase 4 (Homo sapiens, UniProt Q9NWZ3)
T1 sequence (Q9NWZ3 whole entry): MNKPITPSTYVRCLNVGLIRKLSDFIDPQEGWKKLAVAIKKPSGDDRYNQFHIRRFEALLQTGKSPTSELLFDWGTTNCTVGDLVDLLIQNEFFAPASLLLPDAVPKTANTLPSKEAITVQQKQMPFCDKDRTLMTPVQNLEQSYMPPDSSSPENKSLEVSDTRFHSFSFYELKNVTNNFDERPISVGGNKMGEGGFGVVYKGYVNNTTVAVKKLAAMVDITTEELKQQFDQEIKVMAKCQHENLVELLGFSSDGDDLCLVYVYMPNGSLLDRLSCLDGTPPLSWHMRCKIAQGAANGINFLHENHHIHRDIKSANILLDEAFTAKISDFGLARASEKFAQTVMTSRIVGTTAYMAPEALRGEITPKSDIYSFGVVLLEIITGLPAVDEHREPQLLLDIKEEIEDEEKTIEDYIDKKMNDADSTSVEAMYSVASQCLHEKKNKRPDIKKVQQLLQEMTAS

[20] = molecular target: Tyrosine-protein kinase Fer (Homo sapiens, UniProt P16591);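 also: FER tested as one member of a kinome panel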
[21] = molecular target: Tyrosine-protein kinase Fyn (Homo sapiens, UniProt P06241)
[22] = molecular target: Serine/threonine-protein kinase pim-2 (Homo sapiens, UniProt Q9P1W9);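 also: value comes from a broad kinase panel profiling study in which PIM2 was one of the panel members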
[23] = molecular target: Lymphokine-activated killer T-cell-originated protein kinase (Homo sapiens, UniProt Q96KB5);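 also: value comes from a kinase panel screen in which TOPK was one of the panel members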
[24] = molecular target: Macrophage colony-stimulating factor 1 receptor (Homo sapiens, UniProt P07333);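 also: value comes from the Navigating the Kinome screening panel, CSF1R member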
[25] = molecular target: T2, Serine/threonine-protein kinase BRSK1 (Homo sapiens, UniProt Q8TDC3);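 also: measured within a kinome-wide kinase panel, with the target listed as KIAA1811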
T2 sequence (Q8TDC3 whole entry): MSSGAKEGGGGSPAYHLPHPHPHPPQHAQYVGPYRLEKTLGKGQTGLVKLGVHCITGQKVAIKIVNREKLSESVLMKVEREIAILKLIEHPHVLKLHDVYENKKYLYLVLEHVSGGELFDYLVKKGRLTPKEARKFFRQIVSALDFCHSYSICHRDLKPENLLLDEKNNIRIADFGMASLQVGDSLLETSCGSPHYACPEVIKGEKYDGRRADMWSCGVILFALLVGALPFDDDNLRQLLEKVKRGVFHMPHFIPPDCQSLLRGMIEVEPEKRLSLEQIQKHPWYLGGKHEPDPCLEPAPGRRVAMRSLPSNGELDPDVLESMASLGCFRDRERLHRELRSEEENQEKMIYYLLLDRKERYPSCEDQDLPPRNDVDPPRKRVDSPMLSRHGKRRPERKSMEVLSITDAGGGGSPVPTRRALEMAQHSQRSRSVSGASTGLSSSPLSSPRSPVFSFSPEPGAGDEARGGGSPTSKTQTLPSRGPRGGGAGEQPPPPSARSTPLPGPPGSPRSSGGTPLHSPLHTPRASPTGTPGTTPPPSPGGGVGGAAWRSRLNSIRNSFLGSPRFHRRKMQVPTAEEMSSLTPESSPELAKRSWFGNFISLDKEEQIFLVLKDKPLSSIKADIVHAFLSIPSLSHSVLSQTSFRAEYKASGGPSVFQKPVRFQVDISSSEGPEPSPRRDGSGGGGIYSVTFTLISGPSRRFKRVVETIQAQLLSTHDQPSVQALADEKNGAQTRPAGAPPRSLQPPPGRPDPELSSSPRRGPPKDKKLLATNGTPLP

[26] = molecular target: Dual specificity mitogen-activated protein kinase kinase 2 (Homo sapiens, UniProt P36507); experiment: Navigating the Kinome. Panel member name: MAP2K2
[27] = molecular target: Serine/threonine-protein kinase D3 (Homo sapiens, UniProt O94806);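 also: determined within a kinase panel screen, with PRKCN as the panel member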

Casein kinase I isoform gamma-1, sequence (Q9HCP0 whole entry, canonical isoform): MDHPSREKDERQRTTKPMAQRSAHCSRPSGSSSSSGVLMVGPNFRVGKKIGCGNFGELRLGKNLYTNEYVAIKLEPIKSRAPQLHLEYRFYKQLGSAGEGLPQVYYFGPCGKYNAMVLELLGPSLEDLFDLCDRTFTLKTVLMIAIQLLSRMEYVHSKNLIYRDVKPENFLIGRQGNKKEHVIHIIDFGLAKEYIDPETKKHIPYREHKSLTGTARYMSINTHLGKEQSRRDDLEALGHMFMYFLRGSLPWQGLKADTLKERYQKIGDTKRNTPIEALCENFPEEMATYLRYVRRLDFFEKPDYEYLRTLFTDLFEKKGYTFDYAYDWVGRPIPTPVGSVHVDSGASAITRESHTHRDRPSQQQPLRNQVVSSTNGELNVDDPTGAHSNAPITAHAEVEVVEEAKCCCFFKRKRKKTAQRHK
Dual specificity mitogen-activated protein kinase kinase 1, sequence (Q02750 whole entry): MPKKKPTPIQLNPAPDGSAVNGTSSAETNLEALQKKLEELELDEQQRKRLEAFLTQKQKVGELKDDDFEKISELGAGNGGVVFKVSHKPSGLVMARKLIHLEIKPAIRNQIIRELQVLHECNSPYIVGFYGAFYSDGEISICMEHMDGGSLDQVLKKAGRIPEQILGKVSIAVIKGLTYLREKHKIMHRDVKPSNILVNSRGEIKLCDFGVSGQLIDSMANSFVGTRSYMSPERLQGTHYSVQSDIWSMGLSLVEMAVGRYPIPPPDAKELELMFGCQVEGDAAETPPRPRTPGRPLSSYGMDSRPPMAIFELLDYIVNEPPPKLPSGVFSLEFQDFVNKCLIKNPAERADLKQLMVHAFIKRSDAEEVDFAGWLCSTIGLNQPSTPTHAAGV
Tyrosine-protein kinase JAK2, sequence (O60674 whole entry, canonical isoform): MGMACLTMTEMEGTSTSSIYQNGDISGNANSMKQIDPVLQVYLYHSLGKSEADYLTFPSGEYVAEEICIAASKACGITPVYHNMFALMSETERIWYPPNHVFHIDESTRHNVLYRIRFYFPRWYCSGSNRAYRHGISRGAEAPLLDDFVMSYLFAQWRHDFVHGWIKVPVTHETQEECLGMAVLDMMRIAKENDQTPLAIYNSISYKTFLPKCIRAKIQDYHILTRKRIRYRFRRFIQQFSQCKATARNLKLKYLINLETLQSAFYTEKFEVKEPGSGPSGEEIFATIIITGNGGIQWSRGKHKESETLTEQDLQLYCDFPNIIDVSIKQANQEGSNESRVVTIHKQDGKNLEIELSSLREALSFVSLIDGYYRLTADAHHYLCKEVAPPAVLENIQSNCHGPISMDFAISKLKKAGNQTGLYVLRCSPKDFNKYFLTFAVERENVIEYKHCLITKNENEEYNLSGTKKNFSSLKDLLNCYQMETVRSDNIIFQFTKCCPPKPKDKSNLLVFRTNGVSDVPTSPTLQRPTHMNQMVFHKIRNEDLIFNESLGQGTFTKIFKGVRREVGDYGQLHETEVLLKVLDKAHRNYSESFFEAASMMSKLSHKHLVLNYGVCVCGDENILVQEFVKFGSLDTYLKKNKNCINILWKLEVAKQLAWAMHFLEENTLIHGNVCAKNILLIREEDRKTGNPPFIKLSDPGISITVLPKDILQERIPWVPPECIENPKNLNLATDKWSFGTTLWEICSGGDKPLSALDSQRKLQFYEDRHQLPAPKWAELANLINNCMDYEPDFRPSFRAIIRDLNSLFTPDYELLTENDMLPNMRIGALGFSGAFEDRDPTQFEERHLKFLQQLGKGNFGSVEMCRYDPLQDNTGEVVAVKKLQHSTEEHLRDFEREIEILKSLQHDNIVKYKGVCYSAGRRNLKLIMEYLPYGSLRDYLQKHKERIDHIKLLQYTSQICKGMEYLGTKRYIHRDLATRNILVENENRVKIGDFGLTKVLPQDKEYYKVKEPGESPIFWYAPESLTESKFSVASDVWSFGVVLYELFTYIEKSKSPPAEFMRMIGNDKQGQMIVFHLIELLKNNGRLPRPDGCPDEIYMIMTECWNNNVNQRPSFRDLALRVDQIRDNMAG
Casein kinase I isoform alpha, sequence (P48729 whole entry, canonical isoform): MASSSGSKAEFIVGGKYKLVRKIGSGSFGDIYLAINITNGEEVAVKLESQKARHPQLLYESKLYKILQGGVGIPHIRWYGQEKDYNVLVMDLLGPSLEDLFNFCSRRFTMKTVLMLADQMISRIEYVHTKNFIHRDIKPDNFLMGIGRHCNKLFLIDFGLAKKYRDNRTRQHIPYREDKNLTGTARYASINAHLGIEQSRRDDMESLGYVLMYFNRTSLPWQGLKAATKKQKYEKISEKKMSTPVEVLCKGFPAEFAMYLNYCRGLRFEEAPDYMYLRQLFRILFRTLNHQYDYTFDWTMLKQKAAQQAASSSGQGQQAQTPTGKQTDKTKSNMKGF
Mitogen-activated protein kinase 8, sequence (P45983 whole entry): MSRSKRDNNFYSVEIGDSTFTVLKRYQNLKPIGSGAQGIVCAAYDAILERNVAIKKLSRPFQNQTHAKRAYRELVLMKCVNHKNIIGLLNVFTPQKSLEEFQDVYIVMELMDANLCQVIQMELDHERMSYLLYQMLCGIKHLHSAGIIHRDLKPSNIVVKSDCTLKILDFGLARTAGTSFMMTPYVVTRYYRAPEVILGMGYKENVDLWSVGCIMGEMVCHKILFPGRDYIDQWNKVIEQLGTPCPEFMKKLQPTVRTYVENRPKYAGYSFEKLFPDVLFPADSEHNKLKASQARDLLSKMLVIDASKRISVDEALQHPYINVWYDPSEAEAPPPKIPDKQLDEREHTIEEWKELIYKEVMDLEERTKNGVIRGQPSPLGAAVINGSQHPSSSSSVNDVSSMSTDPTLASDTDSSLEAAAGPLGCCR
Calcium/calmodulin-dependent protein kinase type II subunit gamma, sequence (Q13555 whole entry): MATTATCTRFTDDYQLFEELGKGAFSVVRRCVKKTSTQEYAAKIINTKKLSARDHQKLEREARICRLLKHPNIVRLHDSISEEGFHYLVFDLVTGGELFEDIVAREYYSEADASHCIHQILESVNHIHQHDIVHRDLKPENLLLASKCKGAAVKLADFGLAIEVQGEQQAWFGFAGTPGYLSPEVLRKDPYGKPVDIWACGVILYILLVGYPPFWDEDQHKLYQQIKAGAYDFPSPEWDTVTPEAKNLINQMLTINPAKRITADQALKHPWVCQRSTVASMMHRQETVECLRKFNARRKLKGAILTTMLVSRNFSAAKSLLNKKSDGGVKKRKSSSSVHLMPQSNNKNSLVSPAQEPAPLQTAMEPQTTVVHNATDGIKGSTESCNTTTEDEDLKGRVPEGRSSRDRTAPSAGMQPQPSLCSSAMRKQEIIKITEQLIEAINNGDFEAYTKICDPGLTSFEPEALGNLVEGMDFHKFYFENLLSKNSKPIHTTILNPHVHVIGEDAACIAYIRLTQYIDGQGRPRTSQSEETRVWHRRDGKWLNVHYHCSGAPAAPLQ
Interleukin-1 receptor-associated kinase 1, sequence (P51617 whole entry): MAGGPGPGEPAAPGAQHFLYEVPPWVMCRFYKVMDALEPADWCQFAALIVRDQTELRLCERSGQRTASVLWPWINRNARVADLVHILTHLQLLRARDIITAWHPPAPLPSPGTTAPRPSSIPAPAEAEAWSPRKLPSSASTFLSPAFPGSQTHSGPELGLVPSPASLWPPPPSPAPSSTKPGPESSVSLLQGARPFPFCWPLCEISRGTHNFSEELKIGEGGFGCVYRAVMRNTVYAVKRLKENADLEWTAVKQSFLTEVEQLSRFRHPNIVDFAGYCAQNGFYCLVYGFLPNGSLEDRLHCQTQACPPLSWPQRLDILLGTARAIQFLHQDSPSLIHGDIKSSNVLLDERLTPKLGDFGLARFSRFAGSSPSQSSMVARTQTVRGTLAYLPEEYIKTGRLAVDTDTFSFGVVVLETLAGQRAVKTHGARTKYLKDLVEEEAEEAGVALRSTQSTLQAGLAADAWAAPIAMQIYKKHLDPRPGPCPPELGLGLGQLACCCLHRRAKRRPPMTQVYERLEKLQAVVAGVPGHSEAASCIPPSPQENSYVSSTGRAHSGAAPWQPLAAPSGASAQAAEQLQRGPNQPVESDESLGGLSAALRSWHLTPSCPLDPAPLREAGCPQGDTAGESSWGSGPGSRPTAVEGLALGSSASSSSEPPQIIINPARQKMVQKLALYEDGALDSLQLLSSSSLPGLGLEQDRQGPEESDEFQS
Lymphokine-activated killer T-cell-originated protein kinase, sequence (Q96KB5 whole entry): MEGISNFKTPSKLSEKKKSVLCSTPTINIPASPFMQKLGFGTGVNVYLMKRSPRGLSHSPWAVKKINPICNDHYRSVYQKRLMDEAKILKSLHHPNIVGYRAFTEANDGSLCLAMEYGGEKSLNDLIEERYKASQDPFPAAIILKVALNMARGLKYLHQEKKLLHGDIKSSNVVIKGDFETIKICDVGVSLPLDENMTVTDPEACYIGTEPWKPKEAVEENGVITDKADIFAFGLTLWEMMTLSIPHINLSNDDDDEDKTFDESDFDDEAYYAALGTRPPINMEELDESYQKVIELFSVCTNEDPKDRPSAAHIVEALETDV

NC(=O)c1cc(-c2ccnc(N)n2)[nH]c1-c1ccc(Cl)cc1Cl
Ki [1]: 2 µM (active) | pKi [1]: 5.7 | Ki [2]: 0.02 µM (active) | pKi [2]: 7.7 | Ki [3]: > 5.01 µM (inactive) | Ki [4]: > 1.58 µM (inactive) | Ki [5]: > 1.26 µM (inactive) | Ki [6]: 6.31 µM (active) | pKi [6]: 5.2 | Ki [7]: 0.398 µM (active) | pKi [7]: 6.4 | Ki [8]: 0.398 µM (active) | pKi [8]: 6.4 | Ki (Aurora kinase A): > 1.58 µM (inactive) | Ki [9]: > 7.94 µM (inactive) | Ki [10]: > 5.01 µM (inactive) | Ki [11]: > 10 µM (inactive) | Ki [12]: 0.00794 µM (active) | pKi [12]: 8.1 | Ki [13]: 0.0251 µM (active) | pKi [13]: 7.6 | Ki [14]: 0.251 µM (active) | pKi [14]: 6.6 | Ki [15]: > 2 µM (inactive) | Ki [16]: > 1.58 µM (inactive) | Ki [17]: 0.1 µM (active) | pKi [17]: 7 | Ki [18]: > 1.58 µM (inactive) | Ki [19]: 0.631 µM (active) | pKi [19]: 6.2 | Ki [20]: > 1.58 µM (inactive) | Ki [21]: > 0.794 µM (inactive) | Ki [22]: > 1.58 µM (inactive) | Ki [23]: 3.16 µM (active) | Ki [24]: > 2.51 µM (inactive) | Ki [25]: 6.31 µM (active) | pKi [25]: 5.2 | Ki [26]: > 3.98 µM (inactive)

NC(COc1cncc(-c2ccc3c(c2)C(=Cc2ccco2)C(=O)N3)c1)Cc1c[nH]c2ccccc12 (configuration not stated)
Ki [2]: 0.316 µM (active) | Ki [3]: 0.0126 µM (active) | Ki [4]: 0.02 µM (active) | Ki [5]: > 1.26 µM (inactive) | Ki [6]: 0.0251 µM (active) | Ki [27]: 0.00631 µM (active) | Ki [7]: 0.02 µM (active) | Ki [8]: 0.316 µM (active) | Ki (Aurora kinase A): > 1.58 µM (inactive) | Ki [9]: 2 µM (active) | Ki [10]: 1.26 µM (active) | Ki [11]: 0.398 µM (active) | Ki [12]: 0.501 µM (active) | Ki [13]: 1.26 µM (active) | Ki [14]: 0.0316 µM (active) | Ki [15]: 0.398 µM (active) | Ki [16]: > 1.58 µM (inactive) | Ki [17]: 0.501 µM (active) | Ki [18]: 0.00501 µM (active) | Ki [19]: 0.251 µM (active) | Ki [20]: 0.398 µM (active) | Ki [21]: 0.398 µM (active) | Ki [22]: 0.001 µM (active) | Ki [23]: 0.501 µM (active) | Ki [24]: > 2.51 µM (inactive) | Ki [25]: 0.158 µM (active)

Cc1ccc(-n2nc(C(C)(C)C)cc2NC(=O)Nc2ccc(OCCN3CCOCC3)c3ccccc23)cc1 [DORAMAPIMOD]
Ki [1]: > 3.16 µM (inactive) | Ki [27]: > 3.98 µM (inactive) | Ki [26]: > 3.98 µM (inactive)
